From patent EP4494632A1, “LIPOPHILIC-BASED COMPOSITION” (Consejo Superior de Investigaciones Científicas (CSIC), priority 2023, dated 2025)
Read-outs that look alike come from different tables or passages of the source.

Columns and labels:
in vitro [1] = test: in vitro
Text: (§1) Furthermore, porcine skin permeation is studied. As mentioned in the introduction, the barrier structure of the skin differs greatly from that of the mucosae. In this sense, it will be evaluated whether the mucosae modified both by lipophilic compositions and by compositions that mimic the stratum corneum could have a barrier effect similar to that of the skin.
(§2) Next, the main physicochemical properties which are important in permeability through keratin tissues, such as the skin and mucosae, and the classification to which they belong are described in detail. […] Compounds to be evaluated, physicochemical properties, and classification.
(§3) As in the previous TEWL study, sublingual mucosa and porcine skin dermatomized to a thickness of 500-700 µm are used. Kinetic diffusion studies were performed using a vertical diffusion cell (Lara Spiral, Couternon, France (1.86 cm^2 and 3 ml). The receiver fluid (RF) used was PBS:EtOH (1:1). A water bath was set at 43°C to obtain a membrane surface temperature of 32 ± 1°C.
(§4) Subsequently, the drugs are deposited to determine their kinetics. To that end, 300 µl (infinite dose) of the 1% solution of the 4 drugs in methanol were applied to each Franz cell, in triplicate. Aliquots of 0.2 ml were collected at different times (30 min, 1 h, 2 h, 4 h). The active ingredients were diluted in suitable graduated flasks and filtered through a 0.22 µm nylon filter (Cameo, Sigma-Aldrich, St Louis, U. S.A.). They were then further analyzed with a high performance liquid chromatography diode array detector (HPLC-DAD).
(§5) The software used was OpenLab. […] The ICH guidelines were followed to obtain the calibration curve, the limit of quantification (LoQ), and the limit of detection (LoD). The HPLC-DAD analytical conditions and the method for the four active ingredients are described in detail in Table 4.
(§6) The equation is as follows (1): Qn = (Cn × Vc + ∑i = 1^(n−1) (Ci×Vs))/(A) [formula]
(§7) Wherein: Qn is the cumulative amount of active ingredient released at time n (µg/cm^2); Cn is the concentration of active ingredient in the sample (µg/ml); Vc is the volume of the vertical diffusion cell (7 ml); ∑i = 1^(n−1) Ci [formula] is the sum of the API concentrations (µg/ml) determined at sampling intervals 1 to n-1; Vs is the volume of the sample, and A is the surface area of the sample (1.77 cm^2).
(§8) Two parameters were used, Qn and % API release, to obtain graphs showing absorption and penetration kinetics (Y-axis). Time or its square root (√t) is indicated on the X-axis. […] This step allowed determining the best absorption model to represent the penetration kinetics of the API through the different membranes. The model was obtained with the non-linear regression software STATGRAPHICS plus 5 (Statgraphics Technologies, Inc., Virginia, U. S.A.), and the best equation was selected based on the highest correlation coefficient corrected by the number of degrees of freedom (R2 DoF). Once having defined the model, it was possible to calculate other parameters, such as the flow (J), permeability coefficient (Kp), delay time (TI), maximum concentration (Cmax), maximum time (tmax), and area under the curve (AUC). All results are expressed as mean ± standard deviation (SD).

in vitro [2] = settings: for Permea. coeff., Kp / Cmax at 1 %: pig; for Cmax at 1 %: Conc. Max.
Text: as §1, §2, §3
After 1 h, the TEWL is measured again (Table 3). Table 3. Application of the composition F-MI and evaluation of transepidermal water loss, from the skin, from porcine sublingual mucosa and from the same mucosa modified by applying composition F-MI before applying the drugs.
as §4, §5, §6, §7, §8

[3] = BCS group; cited from earlier work
[4] = cited from earlier work
[5] = Kinetic permeation of biocides using vertical Franz diffusion cells
Method: as §3, §4, §6, §7, §8
(§9) Furthermore, porcine skin permeation is studied. As mentioned in the introduction, the barrier structure of the skin differs greatly from that of the mucosae.
(§10) The biocides evaluated were fungitrol (FUN), propiconazole (PRO), and permethrin (PER) dissolved in ethanol at a concentration of 1% for each active ingredient. […] Table 9. Biocides and their physicochemical properties.
(§11) Table 10. Conditions of the method which are used in HPLC/DAD analysis for fungitrol, propiconazole, and permethrin

[6] = as above; remark: listed apart in the source
Method: as §3, §4, §6, §7, §8, §9, §10, §11

[7] = sublingual mucosa with F-MI, 1% in ethanol
[8] = unmodified sublingual mucosa, 1% in ethanol
[9] = skin, 300 µl of 1% solution in methanol

| SMILES | Area under the curve, AUC (in vitro [1]) [mg/cm^2] | Flow, J (in vitro [1]; pig, 1 %) | Latency time, LT (in vitro [1]; pig, 1 %) | Group [3] | Flow, J ([5]; skin, 1% in ethanol) [µg/cm^2/h] | Latency time, LT ([5]; skin, 1% in ethanol) [h] | Flow, J [6, 7] [µg/cm^2/h] | Latency time, LT [6, 7] [h] | Permea. coeff., Kp [6, 7] | Flow, J [6, 8] [µg/cm^2/h] | Latency time, LT [6, 8] [h] | LogP (pH 7.4) ([4]; biocides, Table 9, PubChem) | further results |
| --- | --- | --- | --- | --- | --- | --- | --- | --- | --- | --- | --- | --- | --- |
| Cn1c(=O)c2c(ncn2C)n(C)c1=O [Caffeine (CAF), Caffeine] | 0.41±0.27 | 75.09±51.32 µg/cm^2/h | 0.65 ± 0.24 h | 1 |  |  |  |  |  |  |  |  | Conc. Max., Cmax (in vitro [1]): 107.23±57.7 3 µg/ml; Permea. coeff., Kp (in vitro [1]; pig): 6.06±4.12 10^-3cm/h; Permea. coeff., Kp (in vitro [2]): 34.55±6.56 10^-3cm/h; Permea. coeff., Kp (in vitro [2]; 1 h): 8.28±2.48 10^-3cm/h |
| C[C@@H]1C[C@H]2[C@@H]3CCC4=CC(=O)C=C[C@]4(C)[C@@]3(F)[C@@H](O)C[C@]2(C)[C@@]1(O)C(=O)CO [Dexamethasone (DEX), Dexamethasone] | 0.03±0.01 | 5,84±3,46 µg/cm^2/h | 0,62±0,16 h |  |  |  |  |  |  |  |  |  | Cmax at 1 % (in vitro [1]; pig): 67400 ng/mL; Cmax at 1 % (in vitro [2]): 315000 ng/mL; LogP (pH 7.4) ([4]; drugs, Table 2): 1.74 |
| CCCCNC(=O)OCC#CI [Fungitrol (FUN), 3-lodo-2-propynyl butylcarbamate] |  |  |  |  | 6.02±3.93 | 0.70 ± 0.00 | 5.59±1.32 | 0.65 ± 0.08 | 0.61±0.14 10^-3cm/h | 62.88±29.97 | -0.34 ± 1.32 | 2.4 | Permea. coeff., Kp ([5]; skin, 1% in ethanol): 1.00±0.40 10^-3cm/h; Permea. coeff., Kp [6, 8]: 6.80±3.26 10^-3cm/h |
| CC(C)Cc1ccc(C(C)C(=O)O)cc1 (centres unmarked) [Ibuprofen (IBU), Ibuprofen] | 0.10 ± 0.01 | 24.79 ± 2.75 µg/cm^2/h | -0.24 ± 0.19 h | 2 |  |  |  |  |  |  |  |  | Cmax at 1 % (in vitro [1]; pig): 21900 ± 1980 ng/mL; Permea. coeff., Kp (in vitro [1]; pig): 2.05 ± 0.23 10^-3cm/h; Permea. coeff., Kp (in vitro [2]): 28.67±0.49 10^-3cm/h; Permea. coeff., Kp (in vitro [2]; 1 h): 41.18±4.09 10^-3cm/h; Cmax at 1 % (in vitro [2]): 341000 ± 63600 ng/mL |
| CC[C@H](C)[C@H]1O[C@]2(CC[C@@H]1C)C[C@@H]1C[C@@H](C/C=C(\C)[C@@H](O[C@H]3C[C@H](OC)[C@@H](O[C@H]4C[C@H](OC)[C@@H](O)[C@H](C)O4)[C@H](C)O3)[C@@H](C)/C=C/C=C3\CO[C@@H]4[C@H](O)C(C)=C[C@@H](C(=O)O1)[C@]34O)O2 [Ivermectin (IVE), Ivermectin] |  |  |  | 4 |  |  |  |  |  |  |  |  | Flow, J (in vitro [1]; [9]): 3.13±0.86 µg/cm^2/h; Latency time, LT (in vitro [1]; [9]): 0.59 ± 0.28 h; permeability through the unmodified mucosa compared to the skin (in vitro [2]): 20 times; Latency time, LT (in vitro [2]; sublingual mucosa with F-MI (70 µl deposited 1 h before), 1% solution in methanol): 0.28 ± 0.02 h; Flow, J (in vitro [2]; unmodified sublingual mucosa, 1% solution in methanol): 63.75±1.57 µg/cm^2/h; LogP (pH 7.4) ([4]; drugs, Table 2): 5.83 |
| CC1(C)C(C=C(Cl)Cl)C1C(=O)OCc1cccc(Oc2ccccc2)c1 (centres unmarked) [Permethrin (PER), Permethrin] |  |  |  |  | 2.93±0.23 | -1.49 ± 0.66 | 3.85±4.00 | -0.28 ± 1.77 | 0.26±0.27 10^-3cm/h | 58.67±45.51 | -0.53 ± 1.14 | 6.5 | Cmax at 1 % ([5]; pig): 9350 ± 110 ng/mL; Permea. coeff., Kp ([5]; pig): 0.20±0.015 10^-3cm/h; Cmax at 1 % ([6]; pig): 15700 ± 20300 ng/mL; Permea. coeff., Kp ([6]; pig): 4.02±3.12 10^-3cm/h |
| CCCC1COC(Cn2cncn2)(c2ccc(Cl)cc2Cl)O1 (centres unmarked) [Propiconazole (PRO), Propiconazole] |  |  |  |  | 2.26±1.48 | 0.60 ± 0.015 | 6.62±3.74 | 1.66 ± 1.00 | 0.70±0.39 10^-3cm/h | 63.92±44.92 | -0.04 ± 1.68 | 3.7 | Permea. coeff., Kp ([5]; pig): 0.24±0.16 10^-3cm/h; Permea. coeff., Kp [6, 8]: 6.80±4.78 10^-3cm/h |
